Reference: paper PMC2785482, “Combined Bezafibrate and Medroxyprogesterone Acetate: Potential Novel Therapy for Acute Myeloid Leukaemia” (PLoS ONE, 2009)
pIC50: −log10 of the molar value.

Molecular target: T1, AKR1C3 (Homo sapiens, UniProt P42330)
T1 construct: Recombinant N-terminal His-tagged AKR1C3
Test: recombinant AKR1C3 phenanthrenequinone reduction, NADPH absorbance at […] nm
Format: biochemical

T1 sequence (P42330 whole entry): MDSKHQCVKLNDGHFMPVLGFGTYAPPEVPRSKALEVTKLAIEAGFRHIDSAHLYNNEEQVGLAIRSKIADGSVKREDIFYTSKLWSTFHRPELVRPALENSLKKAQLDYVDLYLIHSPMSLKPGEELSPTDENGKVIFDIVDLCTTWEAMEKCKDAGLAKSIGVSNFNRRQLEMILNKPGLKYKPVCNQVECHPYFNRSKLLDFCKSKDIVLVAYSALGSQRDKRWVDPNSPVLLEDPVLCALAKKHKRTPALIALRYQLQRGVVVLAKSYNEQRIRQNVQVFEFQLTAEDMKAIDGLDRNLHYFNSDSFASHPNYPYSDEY

Question: `CC(=O)O[C@]1(C(C)=O)CC[C@H]2[C@@H]3C[C@H](C)C4=CC(=O)CC[C@]4(C)[C@H]3CC[C@@]21C` [MPA, medroxyprogesterone acetate] was tested. Which pIC50 did it give?
Answer: The pIC50 was 5.96.
